Measurements published in patent US7189849B2, “Synthesis of acyclic nucleoside derivatives” (Medivir AB, priority 1997, dated 2007).

Key:
[1] = Bioavailability testing in rats (24 h urinary H2G recovery); assay type: in vivo
Procedure: The bioavailability of compounds of the invention were compared to the parent compound H2G and other H2G derivatives in a rat model. Compounds of the invention and comparative compounds were administered, per oral (by catheter into the stomach), to multiples of three individually weighed animals to give 0.1 mmol/kg of the dissolved prodrug in an aqueous (Example 4, 5, Comparative example 1–3, 5, 8), peanut oil (Comparative examples 4, 9, 10) or propylene glycol (Example 1–3, 6–12, 17, Comparative example 6, 7) vehicle dependent on the solubility of the test compound ingredient. The animals were fasted from 5 hours before to approximately 17 hours after administration and were maintained in metabolic cages. Urine was collected for the 24 hours following administration and frozen until analysis. H2G was analysed in the urine using the HPLC/UV assay of Stahle & Oberg, Antimicrob Agents Chemother. 36 No 2, 339–342 (1992), modified as follows: samples upon thawing are diluted 1:100 in aq dist H2O and filtered through an amicon filter with centrifugation at 3000 rpm for 10 minutes. Duplicate 30 μl samples are chromatographed on an HPLC column; Zorbax SB-C18; 75×4.6 mm; 3.5 micron; Mobile phase 0.05M NH4PO4, 3–4% methanol, pH 3.3–3.5; 0.5 ml/min; 254 nm, retention time for H2G at MeOH 4% and pH 3.33, ˜12.5 min. Bioavailability is calculated as the measured H2G recovery from each animal averaged over at least three animals and expressed as a percentage of the averaged 24 hour urinary H2G recovery from a group of 4 individually weighed rats respectively injected i.v. jugularis with 0.1 mmol/kg H2G in a Ringer's buffer vehicle and analysed as above.
Comparative example 1 (H2G) was from the same batch as used for preparation of Examples 1 to 12. The preparation of Comparative example 2 (monoVal-H2G) and 3 (diVal-H2G) are shown in Examples 20 and 23. […] Comparative examples 5 & 8 (Val/Ac H2G) were prepared analogously to Example 4 using acetic anhydride with relevant monovaline H2G. Comparative example 6 (Ala/stearoyl H2G) was prepared analogously to Example 6 using N-t-Boc-L-alanine in step 4. Comparative example 7 (Gly/decanoyl) was prepared analogously to Example 5 but using the step a) intermediate made with N-t-Boc-L-glycine. The preparation of Comparative examples 9 and 10 is shown in Examples 24 and 25 respectively.

[2] = system: Herpes simplex virus-1 (HSV-1); assay: Antiviral activity in HSV-1-infected mouse (survival); assay type: in vivo, mice; conditions: 21 and 83 mg/kg three times daily p.o. for 5 days, relative to an equivalent dose of acyclovir
Procedure: Herpes simplex virus-1 (HSV-1)-infected mouse serves as an animal model to determine the efficacy of antiviral agents in vivo. Mice inoculated intraperitoneally with HSV-1 at 1000 times the LD50 were administered either with a formulation comprising the currently marketed anti-herpes agent acyclovir (21 and 83 mg/kg in a 2% propylene glycol in sterile water vehicle, three times daily, p.o.) or the compound of Example 29 (21 and 83 mg/kg in a 2% propylene glycol in sterile water vehicle, three times daily, p.o.) for 5 consecutive days beginning 5 hours after inoculation. The animals were assessed daily for deaths. […] In the legend, the compound of the invention is denoted Ex.29 and acyclovir is denoted ACV.

[3] = Plasma concentration assay in rats (H2G AUC oral vs i.v.); assay type: in vivo, male Sprague Dawley derived rats; conditions: Table 1B; plasma drug assay in rats, 10 mg/kg oral in propylene glycol, H2G AUC vs 10 mg/kg i.v. H2G
Procedure: A plasma concentration assay was done in male Sprague Dawley derived rats. The animals were fasted overnight prior to dosing but were permitted free access to water. Each of the compounds evaluated was prepared as a solution/suspension in propylene glycol at a concentration corresponding to 10 mg H2G/ml and shaken at room temperature for eight hours. Groups of rats (at least 4 rats in each group) received a 10 mg/kg (1 ml/kg) oral dose of each of the compounds; the dose was administered by gavage. At selected time points after dosing (0.25, 0.5, 1, 1.5, 2, 4, 6, 9, 12, 15, and 24 hours after dosing), heparinized blood samples (0.4 ml/sample) were obtained from a tail vein of each animal. The blood samples were immediately chilled in an ice bath. Within two hours of collection, the plasma was separated from the red cells by centrifugation and frozen till analysis. The components of interest were separated from the plasma proteins using acetonitrile precipitation. Following lyophilisation, and reconstitution, the plasma concentrations were determined by reverse phase HPLC with fluorescence detection. The oral uptake of H2G and other test compounds was determined by comparison of the H2G area under the curve derived from the oral dose compared to that obtained from a 10 mg/kg intravenous dose of H2G, administered to a separate group of rats. The results are depicted in Table 1B above.

[4] = Table 2, rats, 0.1 mmol/kg per oral, 24 hour urinary H2G recovery as percentage of that after 0.1 mmol/kg H2G i.v.

| SMILES | Bioavailability [1, 4] | Bioavailability ([1]; Table 1A, urinary recovery assay of H2G from rats, oral, see Biological Example 1) | Bioavailability [3] | percentage of mice surviving the HSV-1 infection (FIG. 2) [2] |
| --- | --- | --- | --- | --- |
| CCCCCCCCCCCCCCCCCC(=O)OCC[C@@H](CO)Cn1cnc2c(=O)[nH]c(N)nc21 [Comparative Example 10] | 7% |  |  |  |
| CCCCCCCCCCCCCCCCCC(=O)OC[C@H](CCOC(=O)[C@@H](N)C(C)C)Cn1cnc2c(=O)[nH]c(N)nc21.Cl [Example 29, (R)-9-[(2-stearoyloxymethyl)-4-(L-valyloxy)butyl]guanine monohydrochloride] |  |  |  | significantly greater |

Continued, in another order:

| Bioavailability [1, 4] | Bioavailability ([1]; Table 1A, urinary recovery assay of H2G from rats, oral, see Biological Example 1) | Bioavailability [3] | SMILES | percentage of mice surviving the HSV-1 infection (FIG. 2) [2] |
| --- | --- | --- | --- | --- |
| 52% |  |  | CC(=O)CCCC(=O)OC[C@H](CCOC(=O)[C@@H](N)C(C)C)Cn1cnc2c(=O)[nH]c(N)nc21 [Example 10] |  |
| 53% |  |  | CCCCCCCCCCCCCCCCCC(=O)OC[C@H](CCOC(=O)[C@@H](N)[C@@H](C)CC)Cn1cnc2c(=O)[nH]c(N)nc21 [Example 7] |  |
| 8% | 8% | 3.8% | Nc1nc2c(ncn2CC(CO)CCO)c(=O)[nH]1 (stereo not shown) [Comparative example 1, 9-[4-hydroxy-(2-hydroxymethyl)butyl]guanine, reference compound] |  |
